Reference: US12077503B2, “Substituted cyclic amides and their use as herbicides” (FMC CORPORATION, priority 2015, dated 2024)
Like-named read-outs stand apart in the source and are kept apart here.

How the values were obtained:
Format in all cases: in vivo
[1] = tested on: Kochia (Kochia scoparia); assay: Test A preemergence; details: Bassia scoparia, pre-emergence, 240 h; for pest or weed control at 125 g/ha: 125 g ai/ha, preemergence, 0 to 100 scale where 0 is no effect and 100 is complete control, read-out: Kochia plant response rating; for pest or weed control at 500 g/ha: 500 g ai/ha, Preemergence, visual injury vs untreated controls after approximately 10 d, read-out: Kochia plant response rating (0 to 100 scale where 0 is no effect and 100 is complete control)
Outline: (§1)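 Visual injury, scored on a 0–100 scale relative to untreated controls, was recorded about 10 d after application. Treatments were a preemergence soil spray over planted seeds or a postemergence spray on plants at the one- to two-leaf stage, 2 to 10 cm tall, all in loam soil–sand blend in the greenhouse.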

[2] = tested on: barnyardgrass (Echinochloa crus-galli); assay: Test A preemergence; details: Echinochloa crus-galli, pre-emergence, 240 h; for pest or weed control at 125 g/ha: 125 g ai/ha, preemergence, 0 to 100 scale where 0 is no effect and 100 is complete control, read-out: Barnyardgrass plant response rating; for pest or weed control at 500 g/ha: 500 g ai/ha, Preemergence, visual injury vs untreated controls after approximately 10 d, read-out: Barnyardgrass plant response rating (0 to 100 scale where 0 is no effect and 100 is complete control)
Outline: as §1

[3] = tested on: giant foxtail (Setaria faberii); assay: Test A preemergence; details: Setaria faberi, pre-emergence, 240 h; for pest or weed control at 125 g/ha: 125 g ai/ha, preemergence, 0 to 100 scale where 0 is no effect and 100 is complete control, read-out: Foxtail, Giant plant response rating; for pest or weed control at 500 g/ha: 500 g ai/ha, Preemergence, visual injury vs untreated controls after approximately 10 d, read-out: Foxtail, Giant plant response rating (0 to 100 scale where 0 is no effect and 100 is complete control)
Outline: as §1

[4] = tested on: pigweed (Amaranthus retroflexus); assay: Test A preemergence; details: Amaranthus retroflexus, pre-emergence, 240 h; for pest or weed control at 125 g/ha: 125 g ai/ha, preemergence, 0 to 100 scale where 0 is no effect and 100 is complete control, read-out: Pigweed plant response rating; for pest or weed control at 500 g/ha: 500 g ai/ha, Preemergence, visual injury vs untreated controls after approximately 10 d, read-out: Pigweed plant response rating (0 to 100 scale where 0 is no effect and 100 is complete control)
[5] = tested on: ragweed (common ragweed, Ambrosia elatior); assay: Test A preemergence; details: Ambrosia artemisiifolia, pre-emergence, 240 h; for pest or weed control at 125 g/ha: 125 g ai/ha, preemergence, 0 to 100 scale where 0 is no effect and 100 is complete control, read-out: Ragweed plant response rating; for pest or weed control at 500 g/ha: 500 g ai/ha, Preemergence, visual injury vs untreated controls after approximately 10 d, read-out: Ragweed plant response rating (0 to 100 scale where 0 is no effect and 100 is complete control)
Outline: as §1

[6] = tested on: ryegrass, Italian (Italian ryegrass, Lolium multiflorum); assay: Test A preemergence; details: Lolium multiflorum, pre-emergence, 240 h; for pest or weed control at 125 g/ha: 125 g ai/ha, preemergence, 0 to 100 scale where 0 is no effect and 100 is complete control, read-out: Ryegrass, Italian plant response rating; for pest or weed control at 500 g/ha: 500 g ai/ha, Preemergence, visual injury vs untreated controls after approximately 10 d, read-out: Ryegrass, Italian plant response rating (0 to 100 scale where 0 is no effect and 100 is complete control)
Outline: as §1

[7] = tested on: blackgrass (Alopecurus myosuroides); assay: Test A postemergence; details: Alopecurus myosuroides, post-emergence, 240 h, 125 g ai/ha
Outline: as §1

[8] = tested on: corn (Zea mays); assay: Test A postemergence; details: Zea mays, post-emergence, 240 h, 125 g ai/ha; for plant injury at 125 g/ha: postemergence, visual injury rating after approximately 10 d, read-out: Corn plant response rating (0 to 100 scale, 0 no effect, 100 complete control); for Corn plant response rating (crop injury, 0 = no effect, 100 = complete kill) at 125 g/ha: Postemergence, visual injury after approximately 10 d, 0 to 100 scale where 0 is no effect and 100 is complete control
Outline: as §1

[9] = tested on: pigweed (Amaranthus retroflexus); assay: Test A postemergence; details: Amaranthus retroflexus, post-emergence, 240 h, 125 g ai/ha
Outline: as §1

[10] = tested on: ragweed (common ragweed, Ambrosia elatior); assay: Test A postemergence; details: Ambrosia artemisiifolia, post-emergence, 240 h, 125 g ai/ha
Outline: as §1

[11] = tested on: ryegrass, Italian (Italian ryegrass, Lolium multiflorum); assay: Test A postemergence; details: Lolium multiflorum, post-emergence, 240 h, 125 g ai/ha
Outline: as §1

[12] = tested on: barnyardgrass (Echinochloa crus-galli); assay: Test B flooded paddy test; details: Echinochloa crus-galli, Flood, 250 g ai/ha; scale of 0 to 100 where 0 is no effect and 100 is complete control; read-out: Barnyardgrass plant response rating
Outline: (§2)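 Percent control, visually estimated after 13–15 d in the greenhouse on a 0–100 basis, compares treated pots with untreated ones; compound was put into paddy water 3 cm above the soil when plants had two leaves.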

[13] = tested on: ducksalad (Heteranthera limosa); assay: Test B flooded paddy test; details: Heteranthera limosa, Flood, 250 g ai/ha; scale of 0 to 100 where 0 is no effect and 100 is complete control; read-out: Ducksalad plant response rating
Outline: as §2

[14] = tested on: rice (Oryra sativa); assay: Test B flooded paddy test; details: Oryza sativa, Flood, 250 g ai/ha; scale of 0 to 100 where 0 is no effect and 100 is complete control; read-out: Rice plant response rating
Outline: as §2

[15] = tested on: sedge, umbrella (small-flower umbrella sedge, Cyperus difformis); assay: Test B flooded paddy test; details: Cyperus difformis, Flood, 250 g ai/ha; scale of 0 to 100 where 0 is no effect and 100 is complete control; read-out: Sedge, Umbrella plant response rating
Outline: as §2

[16] = postemergence, visual injury rating after approximately 10 d, read-out: Blackgrass plant response rating (0 to 100 scale, 0 no effect, 100 complete control)
[17] = postemergence, visual injury rating after approximately 10 d, read-out: Pigweed plant response rating (0 to 100 scale, 0 no effect, 100 complete control)
[18] = postemergence, visual injury rating after approximately 10 d, read-out: Ragweed plant response rating (0 to 100 scale, 0 no effect, 100 complete control)
[19] = postemergence, visual injury rating after approximately 10 d, read-out: Ryegrass, Italian plant response rating (0 to 100 scale, 0 no effect, 100 complete control)
[20] = Postemergence, visual injury after approximately 10 d, 0 to 100 scale where 0 is no effect and 100 is complete control, read-out: Plant response rating, Blackgrass
[21] = Postemergence, visual injury after approximately 10 d, 0 to 100 scale where 0 is no effect and 100 is complete control, read-out: Plant response rating, Pigweed
[22] = Postemergence, visual injury after approximately 10 d, 0 to 100 scale where 0 is no effect and 100 is complete control, read-out: Plant response rating, Ragweed
[23] = Postemergence, visual injury after approximately 10 d, 0 to 100 scale where 0 is no effect and 100 is complete control, read-out: Plant response rating, Ryegrass, Italian

COc1c(F)ccc([C@H]2CN(C)C(=O)[C@@H]2C(=O)Nc2cccc(F)c2F)c1Cl [Compound 893]
pest or weed control at 125 g/ha [1]: 80% | pest or weed control at 500 g/ha [1]: 90% | pest or weed control at 125 g/ha [2]: 90% | pest or weed control at 500 g/ha [2]: 100% | pest or weed control at 125 g/ha [3]: 90% | pest or weed control at 500 g/ha [3]: 90% | pest or weed control at 125 g/ha [4]: 30% | pest or weed control at 500 g/ha [4]: 50% | pest or weed control at 125 g/ha [5]: 40% | pest or weed control at 500 g/ha [5]: 70% | pest or weed control at 125 g/ha [6]: 40% | pest or weed control at 500 g/ha [6]: 90% | pest or weed control at 125 g/ha [7, 16]: 30% | plant injury at 125 g/ha [8]: 80% | pest or weed control at 125 g/ha [9, 17]: 20% | pest or weed control at 125 g/ha [10, 18]: 30% | pest or weed control at 125 g/ha [11, 19]: 60% | pest or weed control at 250 g/ha [12]: 90% | pest or weed control at 250 g/ha [13]: 90% | pest or weed control at 250 g/ha [14]: 10% | pest or weed control at 250 g/ha [15]: 0%

COc1c(F)ccc([C@H]2CNC(=O)[C@@H]2C(=O)Nc2cccc(F)c2F)c1Cl [Compound 882]
pest or weed control at 125 g/ha [1]: 70% | pest or weed control at 500 g/ha [1]: 90% | pest or weed control at 125 g/ha [2]: 90% | pest or weed control at 500 g/ha [2]: 90% | pest or weed control at 125 g/ha [3]: 70% | pest or weed control at 500 g/ha [3]: 90% | pest or weed control at 125 g/ha [4]: 20% | pest or weed control at 500 g/ha [4]: 20% | pest or weed control at 125 g/ha [5]: 30% | pest or weed control at 500 g/ha [5]: 60% | pest or weed control at 125 g/ha [6]: 0% | pest or weed control at 500 g/ha [6]: 30% | pest or weed control at 125 g/ha [7, 16]: 40% | plant injury at 125 g/ha [8]: 80% | pest or weed control at 125 g/ha [9, 17]: 30% | pest or weed control at 125 g/ha [10, 18]: 0% | pest or weed control at 125 g/ha [11, 19]: 40% | pest or weed control at 250 g/ha [12]: 45% | pest or weed control at 250 g/ha [13]: 100% | pest or weed control at 250 g/ha [14]: 0% | pest or weed control at 250 g/ha [15]: 0%

COc1ccc(CN2CC[C@H](c3ccc(F)cc3)[C@@H](C(=O)Nc3cccc(F)c3F)C2=O)cc1 [Compound 919]
pest or weed control at 125 g/ha [1]: 0% | pest or weed control at 500 g/ha [1]: 0% | pest or weed control at 125 g/ha [2]: 0% | pest or weed control at 500 g/ha [2]: 0% | pest or weed control at 125 g/ha [3]: 0% | pest or weed control at 500 g/ha [3]: 0% | pest or weed control at 125 g/ha [4]: 0% | pest or weed control at 500 g/ha [4]: 0% | pest or weed control at 125 g/ha [5]: 0% | pest or weed control at 500 g/ha [5]: 0% | pest or weed control at 125 g/ha [6]: 0% | pest or weed control at 500 g/ha [6]: 0% | pest or weed control at 125 g/ha [7, 20]: 0% | Corn plant response rating (crop injury, 0 = no effect, 100 = complete kill) at 125 g/ha [8]: 0% | pest or weed control at 125 g/ha [9, 21]: 0% | pest or weed control at 125 g/ha [10, 22]: 0% | pest or weed control at 125 g/ha [11, 23]: 0% | pest or weed control at 250 g/ha [12]: 0% | pest or weed control at 250 g/ha [13]: 0% | pest or weed control at 250 g/ha [14]: 0% | pest or weed control at 250 g/ha [15]: 0%

O=C(Nc1cccc(F)c1F)[C@H]1C(=O)N(C2CC2)CC[C@@H]1c1cccc(C(F)(F)F)c1 [Compound 925]
pest or weed control at 125 g/ha [1]: 0% | pest or weed control at 500 g/ha [1]: 0% | pest or weed control at 125 g/ha [2]: 30% | pest or weed control at 500 g/ha [2]: 90% | pest or weed control at 125 g/ha [3]: 80% | pest or weed control at 500 g/ha [3]: 90% | pest or weed control at 125 g/ha [4]: 0% | pest or weed control at 500 g/ha [4]: 0% | pest or weed control at 125 g/ha [5]: 0% | pest or weed control at 500 g/ha [5]: 0% | pest or weed control at 125 g/ha [6]: 30% | pest or weed control at 500 g/ha [6]: 30% | pest or weed control at 125 g/ha [7, 20]: 0% | Corn plant response rating (crop injury, 0 = no effect, 100 = complete kill) at 125 g/ha [8]: 0% | pest or weed control at 125 g/ha [9, 21]: 0% | pest or weed control at 125 g/ha [10, 22]: 0% | pest or weed control at 125 g/ha [11, 23]: 0% | pest or weed control at 250 g/ha [12]: 0% | pest or weed control at 250 g/ha [13]: 0% | pest or weed control at 250 g/ha [14]: 0% | pest or weed control at 250 g/ha [15]: 0%

COc1c(F)ccc([C@H]2CN(C)C(=O)[C@@H]2C(=O)Nc2ccc(F)cc2F)c1Cl [Compound 894]
pest or weed control at 125 g/ha [1]: 60% | pest or weed control at 500 g/ha [1]: 90% | pest or weed control at 125 g/ha [2]: 90% | pest or weed control at 500 g/ha [2]: 100% | pest or weed control at 125 g/ha [3]: 90% | pest or weed control at 500 g/ha [3]: 100% | pest or weed control at 125 g/ha [4]: 20% | pest or weed control at 500 g/ha [4]: 50% | pest or weed control at 125 g/ha [5]: 0% | pest or weed control at 500 g/ha [5]: 40% | pest or weed control at 125 g/ha [6]: 50% | pest or weed control at 500 g/ha [6]: 60% | pest or weed control at 125 g/ha [7, 16]: 0% | plant injury at 125 g/ha [8]: 60% | pest or weed control at 125 g/ha [9, 17]: 0% | pest or weed control at 125 g/ha [10, 18]: 0% | pest or weed control at 125 g/ha [11, 19]: 50% | pest or weed control at 250 g/ha [12]: 70% | pest or weed control at 250 g/ha [13]: 100% | pest or weed control at 250 g/ha [14]: 0% | pest or weed control at 250 g/ha [15]: 0%
